The values below come from the supplement of paper PMC4862054.

What all share (settings): incubation time: 72 h
One experiment relates to CAL-51. Description: normalised viability (% of control), CellTiter-Blue; higher = more viable cells (about 100 = DMSO control). As to the method:
(§1)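 DSRT, CellTiter-Blue viability, 72 h incubation. Signal is normalised to DMSO and benzethonium chloride controls. Value is the normalised response at dose 3.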
For orientation: Resazurin is reduced to fluorescent resorufin, in cell work by metabolically active cells.

Experiment [1] has as its system HDQ-P1. The description is as above. As to the method: as §1
Another experiment has as its system BT-474. Description: drug sensitivity score (DSS), CellTox Green (DSS (AUC-based score)); higher = stronger drug effect (viability inhibition or cytotoxicity); extreme values may be limits of the assay. The method, boiled down:
(§2)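 Breast cancer cells were seeded into 384-well plates containing compound at 5 concentrations in 10-fold steps over a compound-specific 10,000-fold range and incubated 72 h. After CellTox Green and CellTiter-Glo readings, each plate was normalised to 0.1 % DMSO and a positive kill control. The drug sensitivity score rests on the area under the fitted dose-response curve.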

In another experiment the test system is MDA-MB-436. The experiment is described as above. In outline: as §2
The subject of a further experiment is MCF-10A. The description is as above. The method, boiled down:
as §2

The test system of experiment [2] is HDQ-P1. The experiment is described as above. The method, boiled down:
as §2

The next experiment has as its system CAL-148. Described as above. In outline: as §2
In another experiment the test system is CAL-85-1. Described as above. In outline: as §2
In the next experiment the test system is MFM-223. Described as above. In outline: as §2

SMILES strings stand for the structures.

Regarding `Clc1ccc(C(c2ccccc2Cl)C(Cl)Cl)cc1` (stereo not given) [Mitotane], the normalised viability was determined as 112% in the experiment with CAL-51 (10 nM) and 99.1% in the experiment on HDQ-P1 [1] (10 nM). Moreover, the drug sensitivity score in the experiment with BT-474, in the experiment with MDA-MB-436, with MCF-10A, in the experiment with HDQ-P1 [2], with CAL-148 and with CAL-85-1 was 0 each time. In addition, the drug sensitivity score in the experiment with MFM-223 worked out at 0.

Turning to `COc1cccc2cc(-c3nc([C@H]4CC[C@H](C(=O)O)CC4)n4ncnc(N)c34)[nH]c12` [OSI-027], the normalised viability was 95.4% with CAL-51 (10 nM) and 78.5% in the experiment with HDQ-P1 [1] (10 nM). The drug sensitivity score with BT-474 amounted to 0; with MDA-MB-436 it was 0; in the experiment with MCF-10A it was 0; in the experiment on HDQ-P1 [2] it was 0; in the experiment on CAL-148 it was 0; in the experiment on CAL-85-1, 0.0118. This compound yielded a drug sensitivity score with MFM-223 of 0.

Take `OC[C@H]1O[C@@H](n2cnc3c2N=CNC[C@H]3O)C[C@@H]1O` [Pentostatin]: the normalised viability in the experiment with CAL-51 (10 nM) was determined as 88.4%; with HDQ-P1 [1] (10 nM), 106%. The drug sensitivity score with BT-474, with MDA-MB-436, in the experiment with MCF-10A, in the experiment on HDQ-P1 [2], with CAL-148 and with CAL-85-1 was 0 each time. The drug sensitivity score in the experiment on MFM-223 came to 0.

Turning to `N#CC[C@H](C1CCCC1)n1cc(-c2ncnc3[nH]ccc23)cn1` [Ruxolitinib], the normalised viability is 84.9% with CAL-51 (10 nM) and 74.4% in the experiment on HDQ-P1 [1] (10 nM). In addition, the drug sensitivity score in the experiment on BT-474 stood at 0; in the experiment on MDA-MB-436 it was 0; in the experiment with MCF-10A, 0; with HDQ-P1 [2], 4.94; in the experiment with CAL-148, 0; with CAL-85-1 it was 0. In the experiment with MFM-223, this compound came in with a drug sensitivity score of 0.

As to `C=CC[C@@H]1/C=C(\C)C[C@H](C)C[C@H](OC)[C@H]2O[C@@](O)(C(=O)C(=O)N3CCCC[C@H]3C(=O)O[C@H](/C(C)=C/[C@@H]3CC[C@@H](O)[C@H](OC)C3)[C@H](C)[C@@H](O)CC1=O)[C@H](C)C[C@@H]2OC` [Tacrolimus], the values for the normalised viability in the experiment with CAL-51 (10 nM) and in the experiment on HDQ-P1 [1] (10 nM) were 101% and 119%, respectively. In addition, the drug sensitivity score with BT-474 was 0; in the experiment on MDA-MB-436, 0; in the experiment on MCF-10A, 0.439; in the experiment on HDQ-P1 [2], 0; in the experiment with CAL-148, 0; with CAL-85-1 it was 0. The drug sensitivity score in the experiment on MFM-223 came to 0.

Take `C=CCNC1=C2C[C@@H](C)C[C@H](OC)[C@H](O)[C@@H](C)/C=C(\C)[C@H](OC(N)=O)[C@@H](OC)/C=C\C=C(/C)C(=O)NC(=CC1=O)C2=O` [Tanespimycin]: the normalised viability turned out to be 118% in the experiment on CAL-51 (10 nM) and 93.5% with HDQ-P1 [1] (10 nM). For the same compound, the drug sensitivity score in the experiment on BT-474 is 7.84; in the experiment with MDA-MB-436, 0; in the experiment with MCF-10A, 15.9; in the experiment on HDQ-P1 [2], 10.1; in the experiment on CAL-148, 15.9; in the experiment with CAL-85-1 it was 7.62. The drug sensitivity score in the experiment with MFM-223 was determined as 0.

Turning to `CO[C@H]1C[C@@H]2CC[C@@H](C)[C@@](O)(O2)C(=O)C(=O)N2CCCC[C@H]2C(=O)O[C@H]([C@H](C)C[C@@H]2CC[C@@H](OC(=O)C(C)(CO)CO)[C@H](OC)C2)CC(=O)[C@H](C)/C=C(\C)[C@@H](O)[C@@H](OC)C(=O)[C@H](C)C[C@H](C)/C=C/C=C/C=C/1C` [Temsirolimus], the normalised viability with CAL-51 (1 nM) is 73.9%; in the experiment with HDQ-P1 [1] (1 nM), 90.9%. Also, the drug sensitivity score with BT-474, in the experiment on MDA-MB-436, in the experiment with MCF-10A, in the experiment on HDQ-P1 [2], with CAL-148 and with CAL-85-1 was 0 in each case. The compound further yielded a drug sensitivity score with MFM-223 of 0.

For the compound `C[C@]1(c2nc3c(C(N)=O)cccc3[nH]2)CCCN1` [Veliparib], the normalised viability in the experiment with CAL-51 (10 nM) amounted to 113%; in the experiment on HDQ-P1 [1] (10 nM), 103%. Besides, the drug sensitivity score in the experiment on BT-474 is 0; with MDA-MB-436 it was 0; in the experiment on MCF-10A it was 0; in the experiment with HDQ-P1 [2], 0; in the experiment on CAL-148 it was 2.57; with CAL-85-1, 0.454. In the experiment with MFM-223, this compound showed a drug sensitivity score of 0.

As for `CC[C@]1(O)C[C@@H]2CN(CCc3c([nH]c4ccccc34)[C@@](C(=O)OC)(c3cc4c(cc3OC)N(C)[C@H]3[C@@](O)(C(=O)OC)[C@H](OC(C)=O)[C@]5(CC)C=CCN6CC[C@]43[C@@H]65)C2)C1` [Vinblastine], the normalised viability is 114% in the experiment on CAL-51 (1 nM) and 106% in the experiment with HDQ-P1 [1] (1 nM). In addition, the drug sensitivity score in the experiment with BT-474 came out at 8.39; in the experiment on MDA-MB-436, 0; in the experiment on MCF-10A, 12.5; in the experiment with HDQ-P1 [2] it was 0; with CAL-148 it was 0; with CAL-85-1, 6.07. Also, the drug sensitivity score in the experiment on MFM-223 was determined as 12.2.

`CS(=O)(=O)c1ccc(C(=O)Nc2ccc(Cl)c(-c3ccccn3)c2)c(Cl)c1` [Vismodegib]: the normalised viability came out at 103% with CAL-51 (10 nM) and 105% in the experiment on HDQ-P1 [1] (10 nM). The drug sensitivity score in the experiment on BT-474, in the experiment with MDA-MB-436, in the experiment on MCF-10A, with HDQ-P1 [2], in the experiment with CAL-148 and in the experiment with CAL-85-1 was 0 each time. The drug sensitivity score with MFM-223 came to 0.
